Reference: ChEMBL document CHEMBL1201862, “PubChem BioAssay data set” (2004)
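Following 48 hours of exposure in 96-well plates, responses at five concentrations were used to interpolate endpoints linearly. Abbreviation: GI50, concentration required for 50% inhibition of growth.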 The source made the active and inactive calls. Cut-off read from the data, not from the text of the source: active = GI50 up to about 1.1 µM and inactive = higher.

Assays:
Assay in all cases: inhibition of tumour cell growth, NCI panel, 48 h
EKVX = tested on: EKVX
NCI/ADR-RES = tested on: NCI/ADR-RES
SNB-19 = tested on: SNB-19
SW-620 = tested on: SW-620
K562 = tested on: K562
SF-295 = tested on: SF-295
SR = tested on: SR
IGROV-1 = tested on: IGROV-1
MDA-MB-231 = tested on: MDA-MB-231
RPMI-8226 = tested on: RPMI-8226
Malme-3M = tested on: Malme-3M
NCI-H226 = tested on: NCI-H226
MOLT-4 = tested on: MOLT-4
SF-268 = tested on: SF-268
SK-MEL-5 = tested on: SK-MEL-5
HT-29 = tested on: HT-29
OVCAR-3 = tested on: OVCAR-3
NCI-H23 = tested on: NCI-H23
COLO 205 = tested on: COLO 205
BT-549 = tested on: BT-549

SMILES	GI50 (EKVX)	GI50 (NCI/ADR-RES)	GI50 (SNB-19)	GI50 (SW-620)	GI50 (K562)	GI50 (SF-295)	GI50 (SR)	GI50 (IGROV-1)	GI50 (MDA-MB-231)	GI50 (RPMI-8226)	GI50 (Malme-3M)	GI50 (NCI-H226)	GI50 (MOLT-4)	GI50 (SF-268)	GI50 (SK-MEL-5)	GI50 (HT-29)	GI50 (OVCAR-3)	GI50 (NCI-H23)	GI50 (COLO 205)	GI50 (BT-549)
CSc1ccc(/C=C/c2ccnc3ccccc23)cc1	10.4 µM (inactive)	9.73 µM (inactive)	17.7 µM (inactive)	14 µM (inactive)	5.47 µM (inactive)	14.4 µM (inactive)	5.64 µM (inactive)	16.4 µM (inactive)	17 µM (inactive)	8.43 µM (inactive)	17.6 µM (inactive)	14.5 µM (inactive)	12.2 µM (inactive)	26 µM (inactive)	6.08 µM (inactive)	14 µM (inactive)	13.2 µM (inactive)	11.8 µM (inactive)	11.3 µM (inactive)	
COc1ccc2c(c1)CC[C@@H]1C2CC[C@]2(C)C(=C=CP(=O)(O)O)CCC12 (stereo partly drawn)	> 100 µM (inactive)	> 100 µM (inactive)	> 100 µM (inactive)	> 100 µM (inactive)	> 100 µM (inactive)	> 100 µM (inactive)	99.5 µM (inactive)	> 100 µM (inactive)		< 0.01 µM (active)	> 100 µM (inactive)	> 100 µM (inactive)		> 100 µM (inactive)	> 100 µM (inactive)	> 100 µM (inactive)	> 100 µM (inactive)	> 100 µM (inactive)	> 100 µM (inactive)	
O=c1ccn(-c2ccccn2)c(=O)n1-c1ccccn1	> 100 µM (inactive)	> 100 µM (inactive)	> 100 µM (inactive)	> 100 µM (inactive)	> 100 µM (inactive)	> 100 µM (inactive)		> 100 µM (inactive)	> 100 µM (inactive)	> 100 µM (inactive)	> 100 µM (inactive)	> 100 µM (inactive)	> 100 µM (inactive)	> 100 µM (inactive)	> 100 µM (inactive)	> 100 µM (inactive)	> 100 µM (inactive)	> 100 µM (inactive)	> 100 µM (inactive)	
O=C1OC2(CCCCC2)C(Oc2ccc(Cl)cc2)=C1F	38.2 µM (inactive)		88.7 µM (inactive)	23.6 µM (inactive)	30.6 µM (inactive)	45.4 µM (inactive)	33.5 µM (inactive)	54.8 µM (inactive)	77.3 µM (inactive)	32.7 µM (inactive)	15.6 µM (inactive)		20.3 µM (inactive)	54 µM (inactive)	12.9 µM (inactive)	26.8 µM (inactive)	40.3 µM (inactive)		26.5 µM (inactive)	
O=C1Nc2ccccc2/C1=N/Nc1nc(-c2ccc(Br)cc2)cs1	7.85 µM (inactive)	18 µM (inactive)	18.5 µM (inactive)	28.2 µM (inactive)		24.1 µM (inactive)		0.678 µM (active)	17.5 µM (inactive)				74.8 µM (inactive)	20 µM (inactive)	15.6 µM (inactive)	17.7 µM (inactive)	20.7 µM (inactive)	27.2 µM (inactive)	24.9 µM (inactive)	20 µM (inactive)
O=C(Cc1ccccc1)NN1C(=O)/C(=C\c2cccc([N+](=O)[O-])c2)S/C1=N\c1ccccc1	> 100 µM (inactive)	> 100 µM (inactive)	> 100 µM (inactive)	> 100 µM (inactive)	> 100 µM (inactive)	> 100 µM (inactive)		> 100 µM (inactive)	> 100 µM (inactive)	> 100 µM (inactive)		> 100 µM (inactive)	42.5 µM (inactive)	> 100 µM (inactive)	> 100 µM (inactive)	> 100 µM (inactive)	> 100 µM (inactive)	> 100 µM (inactive)	> 100 µM (inactive)	
O=[N+]([O-])c1cccc(/N=C2\c3ccccc3CN2c2cccc([N+](=O)[O-])c2)c1	> 100 µM (inactive)		> 100 µM (inactive)	> 100 µM (inactive)	> 100 µM (inactive)	> 100 µM (inactive)		> 100 µM (inactive)	> 100 µM (inactive)	> 100 µM (inactive)		> 100 µM (inactive)	> 100 µM (inactive)	81.5 µM (inactive)	> 100 µM (inactive)	> 100 µM (inactive)	65 µM (inactive)	> 100 µM (inactive)	> 100 µM (inactive)	> 100 µM (inactive)
CCOC(=O)Cn1c(=O)c2nc(SC)sc2n(-c2ccccc2)c1=O	> 100 µM (inactive)		> 100 µM (inactive)	> 100 µM (inactive)	> 100 µM (inactive)		> 100 µM (inactive)	> 100 µM (inactive)	> 100 µM (inactive)	> 100 µM (inactive)	> 100 µM (inactive)	> 100 µM (inactive)	> 100 µM (inactive)		> 100 µM (inactive)	> 100 µM (inactive)		> 100 µM (inactive)	> 100 µM (inactive)	> 100 µM (inactive)
CCNCC(=O)Nc1ccc2c(c1)C(=O)c1ccc(NC(=O)CNCC)cc1C2=O	4.93 µM (inactive)	6.08 µM (inactive)	2.7 µM (inactive)	2.99 µM (inactive)	1.78 µM (inactive)	3.33 µM (inactive)		5.51 µM (inactive)	3.3 µM (inactive)		15.5 µM (inactive)	5.51 µM (inactive)		3.27 µM (inactive)	36.4 µM (inactive)	2.45 µM (inactive)	2.59 µM (inactive)	3.43 µM (inactive)	1.71 µM (inactive)	
COc1ccc2oc(=O)c(-c3csc(-c4ccccc4)n3)cc2c1	41.4 µM (inactive)		20.5 µM (inactive)	57.7 µM (inactive)	> 100 µM (inactive)	22.8 µM (inactive)	> 100 µM (inactive)	32.6 µM (inactive)	43.4 µM (inactive)	87.3 µM (inactive)		39.2 µM (inactive)	> 100 µM (inactive)	28.8 µM (inactive)	45.2 µM (inactive)	55.1 µM (inactive)			> 100 µM (inactive)	21.4 µM (inactive)
OC1(C23CC4CC(CC(C4)C2)C3)CSCC1(O)C12CC3CC(CC(C3)C1)C2 (stereo not drawn)	> 100 µM (inactive)		> 100 µM (inactive)	> 100 µM (inactive)	> 100 µM (inactive)	> 100 µM (inactive)	> 100 µM (inactive)	> 100 µM (inactive)		> 100 µM (inactive)	> 100 µM (inactive)	> 100 µM (inactive)	> 10 µM (inactive)	> 100 µM (inactive)	> 100 µM (inactive)	> 100 µM (inactive)	> 100 µM (inactive)	> 100 µM (inactive)	> 100 µM (inactive)	
O=c1c2ccccc2nc2sc(/N=C/C=C/c3ccccc3)nn12	> 100 µM (inactive)	> 100 µM (inactive)	> 100 µM (inactive)	> 100 µM (inactive)	> 100 µM (inactive)	> 100 µM (inactive)	> 100 µM (inactive)	> 100 µM (inactive)		> 100 µM (inactive)	> 100 µM (inactive)	> 100 µM (inactive)	44.9 µM (inactive)	> 100 µM (inactive)	> 100 µM (inactive)	> 100 µM (inactive)	> 100 µM (inactive)	> 100 µM (inactive)	> 100 µM (inactive)	> 100 µM (inactive)
